The source of these data is paper PMC11247486, “Improving the In Vivo Stability of [^52Mn]Mn(II) Complexes with 18-Membered Macrocyclic Chelators for PET Imaging” (Journal of Medicinal Chemistry, 2024).

The nature of data set [1]: 1H NMR relaxometry (relaxivity as a function of pH). To be noted: around neutral pH, 61 MHz and 25 °C. Format: physicochemical. The source says:
The studies reported by Branco assumed the formation of a protonated [Mn(HL)]^3+ species for the Mn-PYAN complex characterized by protonation constant log KMnLH = 5.19 (KMnLH = [MnHL]/[MnL] × [H^+]).[42] However, our pH-potentiometric data could be fitted very well without considering the formation of protonated species or hydroxo-complexes. In order to confirm that the equilibrium model used to fit the pH-potentiometric data was correct, we measured the relaxivity (r1p) of aqueous solutions of the complexes as a function of pH (Figure 4). Relaxivity measures the ability of a paramagnetic solute to enhance the longitudinal relaxation rate of solvent water molecules, normalized for a 1 mM concentration of the paramagnetic ion.[45] The r1p values measured around neutral pH values (0.83 and 1.40 mM^–1 s^–1 at 61 MHz and 25 °C for Mn-PYAN and Mn-CHXPYAN, respectively) are typical of complexes that lack one or more water molecules in the inner coordination sphere, the observed relaxivity being the result of the outer-sphere contribution.[46] Relaxivity is fairly constant in the pH range of 6–9 but increases below pH ∼ 6 due to complex dissociation, reaching a relaxivity of 6.00 mM^–1 s^–1 at pH 3, 61 MHz, and 25 °C that is characteristic of the [Mn(H2O)6]^2+ complex.[47] The relaxivity profile matches the speciation diagrams calculated using the equilibrium constants obtained by pH potentiometry very well, which provides support for the equilibrium model used to fit the potentiometric data. It is worth noting that complex dissociation takes place at a lower pH for Mn-CHXPYAN than for Mn-PYAN, as expected, considering their pMn values.
The relaxivity values were calculated from the longitudinal relaxation time of H2O protons (T1) measured at 61 MHz on a Stelar relaxometer connected to a Bruker WP80 NMR electromagnet adapted to variable-field measurements (15–80 MHz proton Larmor frequency). […] The longitudinal relaxation time was measured with the “inversion recovery” method (180°–τ–90°) by using 12 different τ values with a typical 90° pulse width of 10.7 μs, 4 scans. […]

The conditions of data set [2]: protonation constant of the complex, KMnLH = [MnHL]/[MnL] × [H^+]; cited from earlier work.

Regarding `[Mn+2].c1cc2nc(c1)CN[C@@H]1CCCC[C@H]1NCc1cccc(n1)CN[C@@H]1CCCC[C@H]1NC2` [Mn-CHXPYAN], the “relaxivity r1p” value in data set [1] is given as 1.40 mM^–1 s^–1.
For the molecule `[Mn+2].c1cc2nc(c1)CNCCNCc1cccc(n1)CNCCNC2` [Mn-PYAN], the “relaxivity r1p” value in data set [1] amounted to 0.83 mM^–1 s^–1. Moreover, in data set [2], the “log KMnLH” value is 5.19.
